Test results reported in patent US20230014907A1, “INHIBITORS OF APOL1 AND METHODS OF USING SAME” (Vertex Pharmaceuticals Incorporated, priority 2020, published 2023).
Read-outs that look alike come from different tables or passages of the source.

Target: T1, G1 APOL1 (Homo sapiens, UniProt O14791, I384M/S342G)
T1 construct: expressed in transfected cells
T1 sequence (O14791 28-398 S342G/I384M): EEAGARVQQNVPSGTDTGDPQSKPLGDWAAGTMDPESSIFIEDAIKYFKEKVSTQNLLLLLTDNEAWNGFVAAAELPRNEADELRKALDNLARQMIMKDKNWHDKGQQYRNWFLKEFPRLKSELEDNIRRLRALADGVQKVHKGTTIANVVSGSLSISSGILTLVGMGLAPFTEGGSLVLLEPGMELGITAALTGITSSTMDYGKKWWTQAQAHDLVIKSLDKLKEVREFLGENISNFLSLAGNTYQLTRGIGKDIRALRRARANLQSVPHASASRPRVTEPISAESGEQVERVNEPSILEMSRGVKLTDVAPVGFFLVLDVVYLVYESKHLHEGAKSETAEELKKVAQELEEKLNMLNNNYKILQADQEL
Assay: Acute APOL1 Thallium Assay with Inducible Stable Clones of HEK 293 Cells
Assay type: cell-based
Description: Acute APOL1 Thallium Assay with Inducible Stable Clones of HEK 293 Cells
Apolipoprotein L1 (APOL1) proteins form potassium-permeable cation pores in the plasma membrane. APOL1 risk variants (G1 and G2) induce greater potassium flux than G0 in HEK293 cells. This assay exploits the permeability of thallium (Tl+) through ligand-gated potassium channels. The dye produces a bright fluorescent signal upon binding to Tl+ conducted through potassium channels. The intensity of the Tl+ signal is proportional to the number of potassium channels in the open state. Therefore, it provides a functional indication of the potassium channel activities. During the initial dye-loading step, the Tl+ indicator dye as an acetoxymethyl (AM) ester enters the cells through passive diffusion. Cytoplasm esterases cleave the AM ester and relieve its active thallium-sensitive form. The cells are then stimulated with Tl+. The increase of fluorescence in the assay represents the influx of Tl+ into the cell specifically through the potassium channel (i.e. through APOL1 pores), providing a functional measurement of potassium channel/pore activity. The Thallium assay is conducted with cells expressing G1 APOL1.
APOL1 Cell Line (HEK T-Rex Stable Inducible Cell Line) • HEK T-Rex System • Tetracycline (Tet) inducible mammalian expression system. • Stably express the Tet repressor to regulate transcription. • Expression under the full-length CMV promoter. • APOL1 stable inducible cell line Clone used: G1 DC3.25
Tissue Culture Media • Cell Culture Medium • DMEM+10% FBS+P/S+5 μg/mL blasticidin+1 μg/mL puromycin. • 500 mL DMEM+55 mL FBS+5 mL P/S+280 μL blasticidin S HCl (10 mg/mL)+56 μL puromycin (10 mg/mL). • Cell Assay Medium • DMEM with 2% FBS+penicillin/streptomycin.
Instruments and Equipment • Nuaire cell culture hood, Cat. No. 540-600 • 37° C./5% CO2 incubator link to robotic arm, Liconic: STX110 • Molecular Devices FLIPR^Tetra High throughput cellular screening system, Cat. No. FT0324, Molecular Devices • ThermoFisher MultiDrop 384, Cat. No. 5840300 • Biotek Microfill, Cat. No. ASF1000A-4145 • BioRad TC10 cell counter, Cat. No. 145-0010
Cells Scaled Up from Frozen Vials • APOL1 G1 3.25 (HEK293 T-Rex) frozen vials: 5 million cells per vial • Step 1, Day 1: Defrost frozen vial into T-225. • Step 2, Day 5: (when 85% confluent): Split one T-225 at 3×10^6 cells per flask. • Step 3, Day 8: Splits cells to set up for the assay plates as described below.
T-Rex APOL1 HEK cells are split twice per week to keep the confluence state below 85% of the culture flask surface area. Cells can be kept until passage 25. • Cell Culture Medium • DMEM high glucose+10% FBS, +P/S, +5 μg/mL blasticidin, +1 μg/mL puromycin. • 500 mL DMEM, +55 mL FBS, +5 mL P/S, +280 μL blasticidin 10 mg/mL, +56 μL Puromycin 10 mg/mL. • Assay Media • Opti-MEM reduced serum medium from Invitrogen.
Preparation of Cell Assay Plates • Culture medium is removed from the x cm^2 T-flask by aspiration. • The cell monolayer is rinsed with PBS 1× at room temperature. PBS is removed by aspiration. • Cells are trypsinized using Trypsin. • The flasks are incubated at room temperature for 2-3 minutes. • Complete DMEM medium is then added. Cell suspension is then transferred to a 50 mL Falcon polypropylene tube. • Cells are then counted using a BioRad TC10 cell counter and the required amount of cells are centrifuged at 1200 RPM for 5 minutes. Required amount is 1.3×10^6 cells/mL APOL1 T-Rex HEK cells. • The pellet is suspended in the assay medium. • Using the MultiDrop, add 20 μL to each well (corresponds to 26000 cells total per well) of a 384-well black, transparent, flat bottom Poly-D coated plate. • Tetracycline as prepared in the following section is added to the cells before plating to induce APOL1 expression. • Plates are left at room temperature for 20 to 30 minutes before incubation at 37° C. and 5% CO2. […]

[1] = HEK 293 inducible stable clones, G1 APOL1, read-out: Thallium Assay (IC50)

Row | Structure (SMILES) | IC50 [1] | IC50
1 | CC(C#N)(CO)NC(=O)OCCc1c(-c2ccc(F)cc2)[nH]c2c(F)cc(F)cc12 (racemic) [Compound 461] | 250 to 1000 nM | –
2 | CC(C)(CO)C(=O)NCCc1c(-c2ccc(F)cc2)[nH]c2c(F)cc(F)cc12 [Compound 341] | 250 to 1000 nM | –
3 | Cc1occc1CNC(=O)NCCc1c(-c2ccc(F)cc2)[nH]c2c(F)cc(F)cc12 [Compound 295] | > 1000 nM | –
4 | O=C(Cn1cncn1)NCCc1c(-c2ccc(F)cc2)[nH]c2c(F)cc(F)cc12 [Compound 386] | > 1000 nM | –
5 | CC1(CO)CCN1C(=O)CCc1c(-c2ccc(F)cc2)[nH]c2c(F)cc(F)cc12 (stereo not shown) [Compound 110] | 250 to 1000 nM | –
6 | CC(C)(C)OC(=O)NC1(CC(=O)NCCc2c(-c3ccc(F)cc3)[nH]c3c(F)cc(F)cc23)CC1 [Compound 312] | > 1000 nM | –
7 | O=C(NCCc1c(-c2ccc(F)cc2)[nH]c2c(F)cc(F)cc12)c1cc(C(F)(F)F)n[nH]1 [Compound 315] | > 1000 nM | –
8 | OC1(CC#Cc2c(-c3ccc(F)cc3)[nH]c3c(F)cc(F)cc23)COC1 [Compound 524, 3-[3-[5,7-difluoro-2-(4-fluorophenyl)-1H-indol-3-yl]prop-2-ynyl]oxetan-3-ol] | > 1000 nM | –
9 | O=C(NCCc1c(-c2ccc(F)cc2)[nH]c2c(F)cc(F)cc12)c1ccccn1 [Compound 403] | > 1000 nM | –
10 | O=C(NCCc1c(-c2ccc(F)cc2)[nH]c2c(F)cc(F)cc12)[C@H]1CC[C@@H](O)CC1 [Compound 324] | > 1000 nM | –
11 | O=C1CC(C(=O)NCCc2c(-c3ccc(F)cc3)[nH]c3c(F)cc(F)cc23)CC(=O)N1 [Compound 320] | > 1000 nM | –
12 | O=C(Cc1c(-c2ccc(F)cc2)[nH]c2ccccc12)NCC(O)CO (stereo not shown) [Compound 516, N-(2,3-dihydroxypropyl)-2-(2-(4-fluorophenyl)-1H-indol-3-yl)acetamide] | > 1000 nM | –
13 | CC(=O)NCC(=O)NCCc1c(-c2ccc(F)cc2)[nH]c2c(F)cc(F)cc12 [Compound 344] | > 1000 nM | –
14 | O=C(NCCc1c(-c2ccc(F)cc2)[nH]c2c(F)cc(F)cc12)c1cn[nH]c1 [Compound 352] | > 1000 nM | –
15 | C=CC(=O)NCCc1c(-c2ccc(F)cc2)[nH]c2c(F)cc(F)cc12 [Compound 417] | > 1000 nM | –
16 | CN(C)CCc1c(-c2ccc(F)cc2)[nH]c2c(F)cc(F)cc12 [Compound 429, 2-[5,7-difluoro-2-(4-fluorophenyl)-1H-indol-3-yl]-N,N-dimethyl-ethanamine] | – | > 1000 nM
17 | O=C(CCc1c(-c2ccc(F)cc2)[nH]c2c(F)cc(Cl)cc12)N[C@H](CO)C(F)(F)F [Compound 205] | > 1000 nM | –
18 | CC(CC#N)NC(=O)NCCc1c(-c2ccc(F)cc2)[nH]c2c(F)cc(F)cc12 (racemic) [Compound 301] | < 250 nM | –
19 | CC(O)CS(=O)(=O)NCCc1c(-c2ccc(F)cc2)[nH]c2c(F)cc(F)cc12 (stereo not shown) [Compound 421] | > 1000 nM | –
20 | CNC(=O)CCCc1c(-c2ccc(F)cc2)[nH]c2c(F)cc(F)cc12 [Compound 239, 4-(5,7-difluoro-2-(4-fluorophenyl)-1H-indol-3-yl)-N-methylbutanamide] | 250 to 1000 nM | –
21 | O=C(N[C@H]1COC[C@@H]1O)OCCc1c(-c2ccc(F)cc2)[nH]c2c(F)cc(F)cc12 [Compound 474] | 250 to 1000 nM | –
22 | C[C@H](O)C(=O)NCCc1c(-c2ccc(F)cc2)[nH]c2c(F)cc(F)cc12 [Compound 362] | 250 to 1000 nM | –
23 | O=C(NCCc1c(-c2ccc(F)cc2)[nH]c2c(F)cc(F)cc12)C(O)C1CC1 (stereo not shown) [Compound 346] | 250 to 1000 nM | –

Row | Structure (SMILES) | IC50 [1] | IC50
24 | O=C1NC(=O)C(CCS(=O)(=O)NCCc2c(-c3ccc(F)cc3)[nH]c3c(F)cc(F)cc23)N1 (stereo not shown) [Compound 420, N-(2-(5,7-difluoro-2-(4-fluorophenyl)-1H-indol-3-yl)ethyl)-2-(2,5-dioxoimidazolidin-4-yl)ethane-1-sulfonamide] | > 1000 nM | –
25 | O=C(NCCc1c(-c2ccc(F)cc2)[nH]c2c(F)cc(F)cc12)N[C@@H]1CC[C@H](O)C1 [Compound 272] | > 1000 nM | –
26 | O=C1C[C@H](NC(=O)CCCc2c(-c3ccc(F)cc3)[nH]c3c(F)cc(F)cc23)C(=O)N1 [Compound 245] | > 1000 nM | –
27 | O=C(CCCc1c(-c2ccc(F)cc2)[nH]c2c(F)cc(F)cc12)N[C@H]1C[C@@H](CO)NC1=O [Compound 256] | > 1000 nM | –
28 | O=C(NCCc1c(-c2ccc(F)cc2)[nH]c2c(F)cc(F)cc12)[C@@H]1CCOC1 [Compound 409] | > 1000 nM | –
29 | C[C@@H]1NC(=O)[C@H]1NC(=O)CCc1c(-c2ccc(F)cc2)[nH]c2c(F)cc(F)cc12 [Compound 96] | 250 to 1000 nM | –
30 | CC(C)[C@@H](CO)NC(=O)NCCc1c(-c2ccc(F)cc2)[nH]c2c(F)cc(F)cc12 [Compound 269] | > 1000 nM | –
31 | NC(=O)[C@H](CO)NC(=O)CCc1c(-c2ccc(F)cc2)[nH]c2c(F)cc(Cl)cc12 [Compound 206] | > 1000 nM | –
32 | O=C(CCc1c(-c2ccc(F)cc2)[nH]c2c(F)cc(Cl)cc12)NC(CO)CF (stereo not shown) [Compound 196] | 250 to 1000 nM | –
33 | Cc1cc(F)c2[nH]c(-c3ccc(F)cc3)c(CCC(=O)N[C@H](C)CO)c2c1 [Compound 213] | 250 to 1000 nM | –
34 | O=C(CCc1c(-c2ccc(F)cc2)[nH]c2c(F)cc(Cl)cc12)NC[C@H](O)CO [Compound 204] | > 1000 nM | –
35 | Cn1ccc(C(=O)NCCc2c(-c3ccc(F)cc3)[nH]c3c(F)cc(F)cc23)n1 [Compound 390] | > 1000 nM | –
36 | NC(=O)CCC(=O)NCCc1c(-c2ccc(F)cc2)[nH]c2c(F)cc(F)cc12 [Compound 343] | > 1000 nM | –
37 | Cc1cc(F)c2[nH]c(-c3ccc(F)cc3)c(CCC(=O)NC3(CO)CCC3)c2c1 [Compound 216] | 250 to 1000 nM | –
38 | Cc1cnc(CNC(=O)OCCc2c(-c3ccc(F)cc3)[nH]c3c(F)cc(F)cc23)o1 [Compound 487] | > 1000 nM | –
39 | O=C(NCCc1c(-c2ccc(F)cc2)[nH]c2c(F)cc(F)cc12)C1CC1 [Compound 415] | 250 to 1000 nM | –
40 | O=C(NCCc1c(-c2ccc(F)cc2)[nH]c2c(F)cc(F)cc12)NCc1ccoc1 [Compound 299] | > 1000 nM | –
41 | CN(C[C@H](O)CO)C(=O)CCc1c(-c2ccc(F)cc2)[nH]c2c(F)cc(Cl)cc12 [Compound 211] | > 1000 nM | –
42 | O=C(Cn1nccn1)NCCc1c(-c2ccc(F)cc2)[nH]c2c(F)cc(F)cc12 [Compound 387] | > 1000 nM | –
43 | Cc1ccc(CNC(=O)OCCc2c(-c3ccc(F)cc3)[nH]c3c(F)cc(F)cc23)o1 [Compound 485] | > 1000 nM | –
44 | O=C(COc1cccnc1)NCCc1c(-c2ccc(F)cc2)[nH]c2c(F)cc(F)cc12 [Compound 373] | > 1000 nM | –
45 | O=C(NCc1cccnc1)OCCc1c(-c2ccc(F)cc2)[nH]c2c(F)cc(F)cc12 [Compound 497] | > 1000 nM | –
46 | NCC(=O)NCCc1c(-c2ccc(F)cc2)[nH]c2c(F)cc(F)cc12 [Compound 366] | 250 to 1000 nM | –
